Measured values taken from publication PMC9304322, “Targeting retinoic acid receptor alpha-corepressor interaction activates chaperone-mediated autophagy and protects against retinal degeneration” (Nature Communications, 2022).
“And” between values parts separate entries of the source, which are not always exact repeats. Equal values may be shown once.

Key:
[1] = test system: neuroblastoma cell line N2a expressing the KFERQ-PS-Dendra reporter; assay: CMA activity, KFERQ-PS-Dendra reporter in N2a cells; type: cell-based, mouse; parameters: CMA activity, mean (Fig. S2a): unit not given here
Procedure: (§1) Cells were transduced with lentivirus carrying the KFERQ-PS-Dendra reporter as before. Cells were photoactivated by exposure to a 3.5 mA (current constant) light emitting diode (LED: Norlux, 405 nm) for 3 min and then plated in glass-bottom 96 well plates. At the desired times, cells were fixed with 4% PFA and imaged using high-content microscopy (Operetta system, Perkin Elmer). Images were quantified using the manufacturer’s software in a minimum of 1,200 cells in 9 independent fields per well. […] This was particularly important in the case of primary human cells where the efficiency of transduction was ~65%. To avoid confounding effects for drug-induced changes in cell volume or adherence to the plate that could bring a fraction of the cells per field outside of focus, we set a threshold to count only […] that have at least 1/10 of the average number of […] detected in the untreated wells for each cell type (3–4 puncta/cell in the case of NIH3T3 and N2a cells and 5 puncta/cell in primary human fibroblasts).

[2] = test system: primary human fibroblast expressing the KFERQ-PS-Dendra reporter; assay: CMA activity, KFERQ-PS-Dendra reporter in primary human fibroblasts; type: cell-based; parameters: key to CMA activity, mean (Fig. S2c): puncta per cell
Procedure: as §1

[3] = test system: CMA network components in NIH3T3 cells; assay: qPCR of CMA network components and CMA activation score; type: cell-based, mouse; parameters: LAMP2A mRNA level / HSP90AB1 mRNA level / HSP40 mRNA level / RAC1 mRNA level / AKT1 mRNA level / AKT2 mRNA level / CTSA mRNA level / NFATC1 mRNA level / HSC70 mRNA level / NCOR1 mRNA level / NFE2L2 mRNA level / RAB11A mRNA level / RARa mRNA level / HSP90AA1 mRNA level / EEF1A1 mRNA level / RICTOR mRNA level: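 fold of untreated cells after 20 µM for 24 h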; key to CMA activation score: weighted (LAMP-2A ×2), directed (±1) average of CMA network expression;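 on AKT1 mRNA level: fold of untreated cells after 20 µM for 24 h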;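 on AKT2 mRNA level: fold of untreated cells after 20 µM for 24 h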;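 on CTSA mRNA level: fold of untreated cells after 20 µM for 24 h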;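 on HSC70 mRNA level: fold of untreated cells after 20 µM for 24 h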;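 on HSP40 mRNA level: fold of untreated cells after 20 µM for 24 h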;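 on HSP90AA1 mRNA level: fold of untreated cells after 20 µM for 24 h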;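 on HSP90AB1 mRNA level: fold of untreated cells after 20 µM for 24 h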;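 on LAMP2A mRNA level: fold of untreated cells after 20 µM for 24 h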;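 on NCOR1 mRNA level: fold of untreated cells after 20 µM for 24 h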;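 on NFATC1 mRNA level: fold of untreated cells after 20 µM for 24 h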;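 on NFE2L2 mRNA level: fold of untreated cells after 20 µM for 24 h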;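 on PHLPP1 mRNA level: fold of untreated cells after 20 µM for 24 h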;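 on RAB11A mRNA level: fold of untreated cells after 20 µM for 24 h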;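 on RAC1 mRNA level: fold of untreated cells after 20 µM for 24 h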;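 on RARa mRNA level: fold of untreated cells after 20 µM for 24 h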
Procedure: RNA was extracted from individual retinas or tissue sections (brain, liver). Total RNA from retinas was extracted using TRIzol Reagent (Invitrogen, # 15596-018), and reverse transcription was performed using the High-Capacity cDNA Reverse Transcription Kit (Applied Biosystems, # 4374966) according to the manufacturer’s instructions. Quantitative real-time PCR was performed in a Light Cycler 480 Instrument (Roche) with Taqman LightCycler 480 probes Master Mix (Roche, #4887301001) using Taqman assays (Life Technologies). For cells in culture, RNA was extracted using RNeasy Plus Mini Kit (Qiagen, #74034), and reverse transcription was performed using Superscript III (Invitrogen, #18080051). Quantitative RT-PCR analysis were performed using Power SYBR Green PCR Master Mix (Applied Biosystems, #4368708) on a StepOne Plus Real-Time PCR System (Applied Biosystems). Mm01184405_m1 probe (Thermofisher) was used for rhodopsin and the sequence of all the other probes used for qPCR is included in Supplementary Table 2.
CMA index[14] was calculated using data set from[23]–[25]. Briefly, each element of the CMA network[13] has attributed a weight. As LAMP-2A is the rate-limiting component of CMA, it was given a weight of 2. Every other element received a weight of 1. Then, every element was attributed direction score that is +1 or −1 based on the known effect of a given element on CMA activity. The score was then calculated as the weighted/ directed average of expression counts of every element of the CMA network.

[4] = Fig. 2d (left), individual replicate values, one sample t test

Q: For CC(=O)Nc1ccc(C2=Nc3ccc(Cl)cc3OC2)cc1 [CA77], which “CMA activity, mean relative to concentration 0 = 1 (Fig. S2b)” value ([1]; 12+12w, concentration 0.2) is on record?
A: 0.9934

Q: And the “CMA activity, mean relative to concentration 0 = 1 (Fig. S2b)” value ([1]; 12+12w, concentration 2)?
A: 0.9832

Q: What about the “CMA activity, mean relative to concentration 0 = 1 (Fig. S2b)” value ([1]; 12+12w, concentration 5) of the same molecule?
A: 2.103

Q: What about the “CMA activity, mean relative to concentration 0 = 1 (Fig. S2b)” value ([1]; 12+12w, concentration 10) of the same molecule?
A: 2.605

Q: And the “CMA activity, mean relative to concentration 0 = 1 (Fig. S2b)” value ([1]; 12+12w, concentration 20)?
A: 4.196

Q: And the “CMA activity, mean relative to concentration 0 = 1 (Fig. S2b)” value ([1]; 12+12w, concentration 30)?
A: 3.752

Q: What about the “CMA activity, mean (Fig. S2a)” value ([1]; 12h, concentration 0.02) of the same molecule?
A: 2.724

Q: And the “CMA activity, mean (Fig. S2a)” value ([1]; 12h, concentration 0.2)?
A: 4.16

Q: And the “CMA activity, mean relative to concentration 0 = 1 (Fig. S2b)” value ([1]; 12h, concentration 0.2)?
A: 0.9543

Q: What about the “CMA activity, mean (Fig. S2a)” value ([1]; 12h, concentration 2) of the same molecule?
A: 4.326

Q: What about the “CMA activity, mean relative to concentration 0 = 1 (Fig. S2b)” value ([1]; 12h, concentration 2) of the same molecule?
A: 0.9922

Q: What about the “CMA activity, mean (Fig. S2a)” value ([1]; 12h, concentration 5) of the same molecule?
A: 6.6688

Q: What about the “CMA activity, mean relative to concentration 0 = 1 (Fig. S2b)” value ([1]; 12h, concentration 5) of the same molecule?
A: 1.5297

Q: And the “CMA activity, mean (Fig. S2a)” value ([1]; 12h, concentration 10)?
A: 9.952

Q: And the “CMA activity, mean relative to concentration 0 = 1 (Fig. S2b)” value ([1]; 12h, concentration 10)?
A: 2.283

Q: And the “CMA activity, mean (Fig. S2a)” value ([1]; 12h, concentration 20)?
A: 10.0764

Q: And the “CMA activity, mean relative to concentration 0 = 1 (Fig. S2b)” value ([1]; 12h, concentration 20)?
A: 2.311

Q: And the “CMA activity, mean (Fig. S2a)” value ([1]; 12h, concentration 30)?
A: 18.9972

Q: What about the “CMA activity, mean (Fig. S2a)” value ([1]; 12h, concentration 40) of the same molecule?
A: 10.5987

Q: What about the “CMA activity, mean (Fig. S2a)” value ([1]; 12h, concentration 50) of the same molecule?
A: 9.368

Q: What about the “CMA activity, mean (Fig. S2a)” value ([1]; 12h, concentration 60) of the same molecule?
A: 2.016

Q: What about the “CMA activity, mean (Fig. S2a)” value ([1]; 24h, concentration 0.02) of the same molecule?
A: 2.2722

Q: And the “CMA activity, mean (Fig. S2a)” value ([1]; 24h, concentration 0.2)?
A: 4.676

Q: What about the “CMA activity, mean relative to concentration 0 = 1 (Fig. S2b)” value ([1]; 24h, concentration 0.2) of the same molecule?
A: 0.9787

Q: And the “CMA activity, mean (Fig. S2a)” value ([1]; 24h, concentration 2)?
A: 4.697

Q: What about the “CMA activity, mean relative to concentration 0 = 1 (Fig. S2b)” value ([1]; 24h, concentration 2) of the same molecule?
A: 0.9831

Q: What about the “CMA activity, mean (Fig. S2a)” value ([1]; 24h, concentration 5) of the same molecule?
A: 13.5914

Q: And the “CMA activity, mean relative to concentration 0 = 1 (Fig. S2b)” value ([1]; 24h, concentration 5)?
A: 2.845

Q: And the “CMA activity, mean (Fig. S2a)” value ([1]; 24h, concentration 10)?
A: 13.8573

Q: What about the “CMA activity, mean relative to concentration 0 = 1 (Fig. S2b)” value ([1]; 24h, concentration 10) of the same molecule?
A: 2.901

Q: What about the “CMA activity, mean (Fig. S2a)” value ([1]; 24h, concentration 20) of the same molecule?
A: 21.7668

Q: And the “CMA activity, mean relative to concentration 0 = 1 (Fig. S2b)” value ([1]; 24h, concentration 20)?
A: 4.556

Q: What about the “CMA activity, mean (Fig. S2a)” value ([1]; 24h, concentration 30) of the same molecule?
A: 18.5853

Q: What about the “CMA activity, mean relative to concentration 0 = 1 (Fig. S2b)” value ([1]; 24h, concentration 30) of the same molecule?
A: 3.89

Q: And the “CMA activity, mean (Fig. S2a)” value ([1]; 24h, concentration 40)?
A: 10.9146

Q: What about the “CMA activity, mean (Fig. S2a)” value ([1]; 24h, concentration 50) of the same molecule?
A: 9.363

Q: What about the “CMA activity, mean (Fig. S2a)” value ([1]; 24h, concentration 60) of the same molecule?
A: 0.7571

Q: What about the “CMA activation in neuron-related mouse cells” value ([1]; in words) of the same molecule?
A: efficiently activated CMA

Q: What about the “CMA activity, mean (Fig. S2c)” value ([2]; concentration 0.02) of the same molecule?
A: 27.1536

Q: And the “CMA activity, mean (Fig. S2c)” value ([2]; concentration 0.2)?
A: 22.1247

Q: What about the “CMA activity, mean (Fig. S2c)” value ([2]; concentration 2) of the same molecule?
A: 23.6319

Q: What about the “CMA activity, mean (Fig. S2c)” value ([2]; concentration 5) of the same molecule?
A: 30.8194

Q: And the “CMA activation in human cells” value ([2]; in words)?
A: efficiently activated CMA

Q: What about the “AKT1 mRNA level” value [3, 4] of the same molecule?
A: 1.86 and 1.18 and 1.20 and 0.75 and 0.97 and 1.87 and 1.39

Q: And the “AKT2 mRNA level” value [3, 4]?
A: 1.39 and 1.17 and 1.12 and 0.66 and 1.01 and 1.53 and 1.20

Q: And the “CTSA mRNA level” value [3, 4]?
A: 1.67 and 1.46 and 1.22 and 0.88 and 1.08 and 1.45

Q: What about the “EEF1A1 mRNA level” value [3, 4] of the same molecule?
A: 1.15 and 1.98 and 1.39 and 1.19 and 1.55

Q: And the “HSC70 mRNA level” value [3, 4]?
A: 1.44 and 1.49 and 1.28 and 0.82 and 1.24 and 1.57

Q: What about the “HSP40 mRNA level” value [3, 4] of the same molecule?
A: 0.73 and 0.99 and 0.82 and 0.53 and 0.77 and 1.06

Q: What about the “HSP90AA1 mRNA level” value [3, 4] of the same molecule?
A: 1.50 and 0.94 and 0.92 and 0.76 and 0.78 and 0.87 and 0.90

Q: And the “HSP90AB1 mRNA level” value [3, 4]?
A: 1.21 and 0.89 and 0.79 and 0.62 and 0.81 and 0.82 and 0.83

Q: And the “LAMP2A mRNA level” value [3, 4]?
A: 1.32 and 1.55 and 1.43 and 1.87 and 2.34 and 2.75 and 2.33

Q: What about the “NCOR1 mRNA level” value [3, 4] of the same molecule?
A: 2.35 and 1.24 and 0.55 and 0.97 and 2.06 and 1.85

Q: And the “NFATC1 mRNA level” value [3, 4]?
A: 2.10 and 1.29 and 1.23 and 0.50 and 0.73 and 1.05 and 1.18

Q: And the “NFE2L2 mRNA level” value [3, 4]?
A: 1.29 and 1.15 and 1.04 and 0.89 and 0.77 and 1.26

Q: What about the “PHLPP1 mRNA level” value [3, 4] of the same molecule?
A: 2.13 and 1.55 and 1.38 and 2.29 and 1.20 and 1.48 and 1.51

Q: And the “RAB11A mRNA level” value [3, 4]?
A: 1.15 and 0.97 and 0.81 and 0.59 and 0.79 and 0.89 and 1.07

Q: And the “RAC1 mRNA level” value [3, 4]?
A: 0.89 and 1.51 and 1.36 and 1.27 and 1.10 and 1.63 and 1.34

Q: What about the “RARa mRNA level” value [3, 4] of the same molecule?
A: 1.23 and 0.87 and 0.82 and 0.27 and 1.06 and 2.06 and 1.10

Q: What about the “RICTOR mRNA level” value [3, 4] of the same molecule?
A: 0.96 and 1.28 and 0.65 and 0.74 and 1.53 and 1.63

Q: And the CMA activation score ([3]; Fig. 2d (right), individual replicate values)?
A: 0.1487 and -0.2323 and 0.1868 and 0.1591

Q: What about the “predicted CMA score compared to AR7” value ([3]; NIH3T3, 20μM for 24 h) of the same molecule?
A: higher
